Results as given in patent publication US9353104B2, “Substituted pyridizinone derivatives as PDE10 inhibitors” (priority 2013, dated 2016).

Biological target: human PDE10A2 (Homo sapiens (Human), UniProt Q9Y233)
Test: PDE10 fluorescence polarization (IMAP FP) inhibition assay
Assay type: biochemical
Details: human PDE10A2 lysate, FAM-labeled cAMP 50 nM, room temperature; read-out: PDE10A Ki
Protocol: The activity of the compounds in accordance with the present invention as PDE10 inhibitors may be readily determined without undue experimentation using a fluorescence polarization (FP) methodology that is well known in the art (Huang, W., et al., J. Biomol Screen, 2002, 7: 215). […] In a typical experiment the PDE10 inhibitory activity of the compounds of the present invention was determined in accordance with the following experimental method. PDE10A2 was amplified from human fetal brain cDNA (Clontech, Mountain View, Calif.) using a forward primer corresponding to nucleotides 56-77 of human PDE10A2 (Accession No. AF127480, Genbank Identifier 4894716), containing a Kozak consensus sequence, and a reverse primer corresponding to nucleotides 2406-2413 of human PDE10A2 (Accession No. AF127480, Genbank Identifier 4894716). Amplification with Easy-A polymerase (Stratagene, La Jolla, Calif.) was 95° C. for 2 minutes followed by thirty three cycles of 95° C. for 40 seconds, 55° C. for 30 seconds, and 72° C. for 2 minutes 48 seconds. Final extension was 72° C. for 7 minutes. The PCR product was TA cloned into pcDNA3.2-TOPO (Invitrogen, Carlsbad, Calif.) according to standard protocol. AD293 cells with 70-80% confluency were transiently transfected with human PDE10A2/pcDNA3.2-TOPO using Lipofectamine 2000 according to manufacturer specifications (Invitrogen, Carlsbad, Calif.). Cells were harvested 48 hours post-transfection and lysed by sonication (setting 3, 10×5 sec pulses) in a buffer containing 20 mM HEPES, 1 mM EDTA and protease inhibitor cocktail (Roche). Lysate was collected by centrifugation at 75,000×g for 20 minutes. Supernatant containing the cytoplasmic fraction was used for evaluation of PDE10A2 activity. The fluorescence polarization assay for cyclic nucleotide phosphodiesterases was performed using an IMAP® FP kit supplied by Molecular Devices, Sunnyvale, Calif. (product #R8139). IMAP® technology has been applied previously to phosphodiesterase assays (Huang, W., et al., J. Biomol Screen, 2002, 7: 215). Assays were performed at room temperature in 384-well microtiter plates with an incubation volume of 20.2 μL. Solutions of test compounds were prepared in DMSO and serially diluted with DMSO to yield 8 μL of each of 10 solutions differing by 3-fold in concentration, at 32 serial dilutions per plate. 100% inhibition is determined using a known PDE10 inhibitor, which can be any compound that is present at 5,000 times its Ki value in the assay described as follows, such as papaverine (see Siuciak, et al. Neuropharmacology (2006) 51:386-396; Becker, et al. Behav Brain Res (2008) 186(2):155-60; Threlfell, et al., J Pharmacol Exp Ther (2009) 328(3):785-795), 2-{4-[pyridin-4-yl-1-(2,2,2-trifluoroethyl)-1H-pyrazol-3-yl]phenoxymethyl}quinoline succinic acid or 2-[4-(1-methyl-4-pyridin-4-yl-1H-pyrazol-3-yl)-phenoxymethyl]quinoline succinic acid (see Schmidt, et al. J Pharmacol Exp Ther (2008) 325:681-690; Threlfell, et al., J Pharmacol Exp Ther (2009) 328(3): 785-795). 0% of inhibition is determined by using DMSO (1% final concentrations).
A Labcyte Echo 555 (Labcyte, Sunnyvale, Calif.) is used to dispense 200 nL from each well of the titration plate to the 384 well assay plate. A solution of enzyme (1/1600 dilution from aliquots; sufficient to produce 20% substrate conversion) and a separate solution of FAM-labeled cAMP PDE from Molecular Devices (product #R7506), at a final concentration of 50 nM are made in the assay buffer (10 mM Tris HCl, pH 7.2, 10 mM MgCl2, 0.05% NaN3 0.01% Tween-20, and 1 mM DTT). The enzyme and the substrate are then added to the assay plates in two consecutive additions of 10 μL, and then shaken to mix. The reaction is allowed to proceed at room temperature for 30 minutes. A binding solution is then made from the kit components, comprised of 80% Solution A, 20% Solution B and binding reagent at a volume of 1/600 the total binding solution.

human PDE10A2, sequence (Q9Y233 267-1055): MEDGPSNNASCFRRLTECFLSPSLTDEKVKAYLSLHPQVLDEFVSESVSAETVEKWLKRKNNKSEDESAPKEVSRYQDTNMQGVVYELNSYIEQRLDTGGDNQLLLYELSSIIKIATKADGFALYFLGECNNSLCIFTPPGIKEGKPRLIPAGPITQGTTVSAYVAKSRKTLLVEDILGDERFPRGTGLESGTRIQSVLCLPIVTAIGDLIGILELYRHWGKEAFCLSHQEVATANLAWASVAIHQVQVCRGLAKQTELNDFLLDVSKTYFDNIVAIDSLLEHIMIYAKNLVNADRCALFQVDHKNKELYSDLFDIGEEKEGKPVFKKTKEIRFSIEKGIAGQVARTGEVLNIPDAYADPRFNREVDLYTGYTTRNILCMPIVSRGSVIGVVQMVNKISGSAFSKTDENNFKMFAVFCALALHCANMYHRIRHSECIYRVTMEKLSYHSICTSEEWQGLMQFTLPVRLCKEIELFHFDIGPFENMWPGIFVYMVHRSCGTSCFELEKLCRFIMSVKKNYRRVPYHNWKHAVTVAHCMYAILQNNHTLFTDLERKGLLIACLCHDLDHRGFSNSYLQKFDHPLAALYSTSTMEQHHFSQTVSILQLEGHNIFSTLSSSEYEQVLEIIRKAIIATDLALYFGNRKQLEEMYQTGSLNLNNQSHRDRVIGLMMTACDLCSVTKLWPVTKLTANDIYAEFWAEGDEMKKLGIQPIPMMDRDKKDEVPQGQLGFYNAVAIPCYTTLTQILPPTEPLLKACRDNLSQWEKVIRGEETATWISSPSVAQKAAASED

Row | SMILES | Ki
1 | COc1ccc([C@H]2C[C@@H]2COc2cc(NCc3nc(C)c(C)s3)c(=O)n(C)n2)nc1 [Example 126, 4-((4,5-dimethylthiazol-2-yl)methylamino)-6-(((1S,2S)-2-(5-methoxy-pyridin-2-yl)cyclopropyl-)methoxy)-2-methyl-pyridazin-3(2H)-one] | 0.048 nM
2 | COc1ccc([C@H]2C[C@@H]2COc2cc(NCc3ccnc(C)c3)c(=O)n(C)n2)nc1 [Example 62, 6-(((1S,2S)-2-(5-methoxy-pyridin-2-yl)cyclopropyl-)-methoxy)-2-methyl-4-(((2-methylpyridin-4-yl)methyl)amino)pyridazin-3(2H)-one] | 0.122 nM
3 | COc1ccc([C@H]2C[C@@H]2COc2cc(NCc3ncccc3C)c(=O)n(C)n2)nc1 [Example 73, 6-(((1S,2S)-2-(5-methoxypyridin-2-yl)cyclopropyl)methoxy)-2-methyl-4-(((3-methyl-pyridin-2-yl)methyl)-amino)pyridazin-3(2H)one] | 32.3 nM
4 | COc1ccc([C@H]2C[C@@H]2COc2cc(NCc3c(C)noc3C)c(=O)n(C)n2)nc1 [Example 59, 4-(((3,5-dimethylisoxazol-4-yl)methyl)amino)-6-(((1S,2S)-2-(5-methoxy-pyridin-2-yl)cyclopropyl-)-methoxy)-2-methyl-pyridazin-3(2H)-one] | 0.38 nM
5 | Cc1cc(CNc2cc(OC[C@H]3C[C@@H]3c3ccc(F)cn3)nn(C)c2=O)n(C)n1 [Example 18] | 0.099 nM
6 | Cn1cc(CNc2cc(OC[C@H]3C[C@@H]3c3ccn(C)n3)nn(C)c2=O)cn1 [Example 23, 2-methyl-6-(((1S,2S)-2-(1-methyl-1H-pyrazol-3-yl)cyclopropyl)methoxy)-4-((1-methyl-1H-pyrazol-4-yl)methylamino)-pyridazin-3(2H)-one] | 0.478 nM
7 | Cc1ncc(CNc2cc(OC[C@H]3C[C@@H]3c3ccc(OC(F)F)cn3)nn(C)c2=O)s1 [Example 29, 6-(((1S,2S)-2-(5-(difluoromethoxy)pyridin-2-yl)cyclopropyl)-methoxy)-2-methyl-4-((2-methylthiazol-5-yl)methyl-amino)pyridazin-3(2H)one] | 0.109 nM
8 | COc1ccc([C@H]2C[C@@H]2COc2cc(NCc3nc(C)ccc3F)c(=O)n(C)n2)nc1 [Example 70, 4-(((3-fluoro-6-methyl-pyridin-2-yl)methyl)-amino)-6-(((1S,2S)-2-(5-methoxypyridin-2-yl)-cyclopropyl)methoxy)-2-methylpyridazin-3(2H)one] | 55.1 nM
9 | COc1ccc([C@H]2C[C@@H]2COc2cc(NCc3cnn(C)c3)c(=O)n(C)n2)nc1 [Example 131, 6-(((1S,2S)-2-(5-methoxy-pyridin-2-yl)cyclopropyl-)methoxy)-2-methyl-4-((1-methyl-1H-pyrazol-4-yl)methylamino)pyridazin-3(2H)-one] | 0.014 nM
10 | Cc1cc(CNc2cc(OC[C@H]3C[C@@H]3c3ccc(Cl)cn3)nn(C)c2=O)n(C)n1 [Example 33, 6-(((1S,2S)-2-(5-chloropyridin-2-yl)cyclopropyl)methoxy)-4-((1,3-dimethyl-1H-pyrazol-5-yl)methylamino)-2-methylpyridazin-3(2H)-one] | 0.02 nM
11 | COc1ccc([C@H]2C[C@@H]2COc2cc(NCc3ccc(C)nc3)c(=O)n(C)n2)nc1 [Example 64, 6-(((1S,2S)-2-(5-methoxy-pyridin-2-yl)cyclopropyl-)-methoxy)-2-methyl-4-(((6-methylpyridin-3-yl)methyl)amino)pyridazin-3(2H)-one] | 0.025 nM
12 | Cc1ncc(CNc2cc(OC[C@H]3C[C@@H]3c3ccc(Cl)cn3)nn(C)c2=O)s1 [Example 34, 6-(((1S,2S)-2-(5-chloropyridin-2-yl)cyclopropyl)methoxy)-2-methyl-4-((2-methylthiazol-5-yl)methylamino)pyridazin-3(2H)-one] | 0.064 nM
13 | C#CCN(Cc1ccc(OC)cc1)c1cc(OC[C@H]2C[C@@H]2c2ccc(OC)cn2)nn(C)c1=O [Example 145, 4-((4-methoxybenzyl)(prop-2-ynyl)amino)-6-(((1S,2S)-2-(5-methoxypyridin-2-yl)cyclopropyl)methoxy)-2-methylpyridazin-3(2H)-one] | 7.9 nM
14 | Cc1nn(C)c(Cl)c1CNc1cc(OC[C@H]2C[C@@H]2c2ccn(C)n2)nn(C)c1=O [Example 40] | 11.8 nM
15 | Cc1nnc(CNc2cc(OC[C@H]3C[C@@H]3c3ccc(Cl)cn3)nn(C)c2=O)s1 [Example 25, 6-(((1S,2S)-2-(5-chloropyridin-2-yl)cyclopropyl)methoxy)-2-methyl-4-((5-methyl-1,3,4-thiadiazol-2-yl)methylamino)pyridazin-3(2H)-one] | 0.0819 nM
16 | Cn1cc(CNc2cc(OC[C@@H]3C[C@H]3c3nn(C)c4ccccc34)nn(C)c2=O)cn1 [Example 113, 2-methyl-6-(((1R,2R)-2-(1-methyl-1H-indazol-3-yl)cyclopropyl)methoxy)-4-((1-methyl-1H-pyrazol-4-yl)methylamino) pyridazin-3(2H)-one] | 0.197 nM
17 | Cc1cc(CNc2cc(OC[C@H]3C[C@@H]3c3ccc(OC(F)F)cn3)nn(C)c2=O)n(C)n1 [Example 28, 6-(((1S,2S)-2-(5-(difluoro-methoxy)pyridin-2-yl)-cyclopropyl)-methoxy)-4-((1,3-dimethyl-1H-pyrazol-5-yl)methyl-amino)-2-methylpyridazin-3(2H)one] | 0.046 nM
18 | Cc1cccc([C@H]2C[C@@H]2COc2cc(NCc3ccccn3)c(=O)n(C)n2)n1 [Example 119, 2-methyl-6-(((1S,2S)-2-(6-methylpyridin-2-yl)cyclo-propyl)methoxy)-4-(pyridin-2-ylmethylamino-)pyridazin-3(2H)-one] | 3.4 nM
19 | Cc1cc(C(=O)Nc2cc(OC[C@H]3C[C@@H]3c3ccn(C)n3)nn(C)c2=O)n(C)n1 [Example 103, 1,3-dimethyl-N-(2-methyl-6-(((1S,2S)-2-(1-methyl-1H-pyrazol-3-yl)cyclopropyl)methoxy)-3-oxo-2,3-dihydropyridazin-4-yl)-1H-pyrazole-5-carboxamide] | 75 nM
20 | Cn1cc(CNc2cc(OC[C@H]3C[C@@H]3c3ccc(F)cn3)nn(C)c2=O)cn1 [Example 19, 6-(((1S,2S)-2-(5-fluoropyridin-2-yl)cyclo-propyl)methoxy)-2-methyl-4-((1-methyl-1H-pyrazol-4-yl)methylamino-)-pyridazin-3(2H)-one] | 1.26 nM
21 | COc1ccc([C@H]2C[C@@H]2COc2cc(NCc3cnn(C)c3N(C)C)c(=O)n(C)n2)nc1 [Example 83, 4-(((5-(dimethylamino)-1-methyl-1H-pyrazol-4-yl)methyl)amino)-6-(((1S,2S)-2-(5-methoxypyridin-2-yl)cyclopropyl)methoxy)-2-methylpyridazin-3(2H)-one] | 42.6 nM
22 | Cc1ncc(CNc2cc(OC[C@H]3C[C@@H]3c3ccn(C)n3)nn(C)c2=O)s1 [Example 2, 2-methyl-6-(((1S,2S)-2-(1-methyl-1H-pyrazol-3-yl)cyclopropyl)methoxy)-4-((2-methylthiazol-5-yl)methylamino)pyridazin-3(2H)-one] | 0.089 nM
23 | Cc1cc(CNc2cc(OC[C@H]3C[C@@H]3c3ccn(C)n3)nn(C)c2=O)n(C)n1 [Example 21, 4-((1,3-dimethyl-1H-pyrazol-5-yl)methylamino)-2-methyl-6-(((1S,2S)-2-(1-methyl-1H-pyrazol-3-yl)cyclopropyl)methoxy)-pyridazin-3(2H)-one] | 0.044 nM
